# Measured values taken from US20230002372A1, “AZAINDOLE CARBOXAMIDE COMPOUNDS FOR THE TREATMENT OF MYCOBACTERIAL INFECTIONS” (THE GLOBAL ALLIANCE FOR TB DRUG DEVELOPMENT, INC., priority 2019, published 2023).
# Tests used:
# M tb H37Rv = assay: MIC determination against M tb H37Rv (green fluorescent protein reporter assay; MIC-MABA); type: cell-based, Mycobacterium tuberculosis; conditions: Mycobacterium tuberculosis, H37RV, 240 h, read-out: M. TB H37Rv: MIC-MABA: MIC, M. tb H37Rv; 7H9 broth; 10 days exposure; MIC = lowest concentration inhibiting fluorescence by 90%
# Mycobacterium abscessus = assay: MIC against Mycobacterium abscessus (Mab_ATCC, MHII broth); type: cell-based; conditions: Mycobacteroides abscessus; Mycobacterium abscessus ATCC strain; Mueller-Hinton broth (MHII)
# Source text: Key for Tables: MIC: Minimum Inhibitory Concentration; MABA: microplate-based Alamar Blue assay; Mab: Mycobacterium abscessus; ATCC: American Type Culture Collection; and MHII: Mueller-Hinton broth.
SMILES,MIC (M tb H37Rv),MIC (Mycobacterium abscessus)
"Cc1nc2[nH]c(C(=O)N[C@H]3CC[Si](C)(C)C3)cc2c(F)c1F (single isomer, unassigned) [MPL-295B]",< 0.004 µg/mL,0.12 µg/mL
"Cc1nc2[nH]c(C(=O)N[C@@H]3CCC[Si](C)(C)CC3)cc2c(F)c1Cl (single isomer, unassigned) [MPL-316A]",0.014 µg/mL,0.19 µg/mL
"COc1ccc2cc(C(=O)N[C@H]3CCC[Si](C)(C)CC3)[nH]c2n1 (single isomer, unassigned) [MPL-466A]",0.042 µg/mL,0.25 µg/mL
"COc1ccc2cc(C(=O)N[C@@H]3CCC[Si](C)(C)CC3)[nH]c2n1 (single isomer, unassigned) [MPL-466B]",> 1 µg/mL,8 µg/mL
"C[C@@H]1[C@@H](NC(=O)c2cc3c(Br)ccnc3[nH]2)C[C@H]2C[C@@H]1C2(C)C [MPL-012, 4-bromo-N-[(1S,2S,3S,5R)-2,6,6-trimethylnorpinan-3-yl]-1H-pyrrolo[2,3-b]pyridine-2-carboxamide]",0.048 µg/mL,4 µg/mL
"O=C(NC1CCCCCCC1)c1cc2c(Cl)cncc2[nH]1 [MPL-034, 4-chloro-N-cyclooctyl-1H-pyrrolo[2,3-c]pyridine-2-carboxamide]",0.25 µg/mL,2 µg/mL
"Cc1cc(F)c2cc(C(=O)NC3CCCCCCC3)[nH]c2n1 [MPL-044, N-cyclooctyl-4-fluoro-6-methyl-1H-pyrrolo[2,3-b]pyridine-2-carboxamide]",0.013 µg/mL,2 µg/mL
"Cc1cc(Cl)c2cc(C(=O)N[C@H]3C[C@H]4C[C@@H]([C@@H]3C)C4(C)C)[nH]c2n1 [MPL-045, 4-chloro-6-methyl-N-[(1S,2S,3S,5R)-2,6,6-trimethylnorpinan-3-yl]-1H-pyrrolo[2,3-b]pyridine-2-carboxamide]",0.069 µg/mL,2 µg/mL
"Cc1nc2[nH]c(C(=O)NC3CCC(C)(C)CC3)cc2c(F)c1F [MPL-067, N-(4,4-dimethylcyclohexyl)-4,5-difluoro-6-methyl-1H-pyrrolo[2,3-b]pyridine-2-carboxamide]",0.01 µg/mL,0.25 µg/mL
"Cc1cc(F)c2cc(C(=O)NC3CCC(C)(C)CC3)[nH]c2n1 [MPL-118, N-(4,4-dimethylcyclohexyl)-4-fluoro-6-methyl-1H-pyrrolo[2,3-b]pyridine-2-carboxamide]",0.017 µg/mL,1 µg/mL
"Cc1cc(Cl)c2cc(C(=O)NC3CCC(C)(C)CC3)[nH]c2n1 [MPL-119, 4-chloro-N-(4,4-dimethylcyclohexyl)-6-methyl-1H-pyrrolo[2,3-b]pyridine-2-carboxamide]",0.14 µg/mL,0.5 µg/mL
"Cc1cc2cc(C(=O)N[C@H]3C[C@H]4C[C@@H]([C@@H]3C)C4(C)C)[nH]c2cn1 [MPL-124, 5-methyl-N-[(1S,2S,3S,5R)-2,6,6-trimethylnorpinan-3-yl]-1H-pyrrolo[2,3-c]pyridine-2-carboxamide]",3.1 µg/mL,16 µg/mL
"CC1(C)CCC(NC(=O)c2cc3cc(Cl)ncc3[nH]2)CC1 [MPL-127, 5-chloro-N-(4,4-dimethylcyclohexyl)-1H-pyrrolo[2,3-c]pyridine-2-carboxamide]",0.54 µg/mL,8 µg/mL
"Cc1nc(F)cc2cc(C(=O)NC3CCC(C)(C)CC3)[nH]c12 [MPL-135, N-(4,4-dimethylcyclohexyl)-5-fluoro-7-methyl-1H-pyrrolo[2,3-c]pyridine-2-carboxamide]",1.5 µg/mL,8 µg/mL
"CC1(C)C2CCC1(C)C(NC(=O)c1cc3c(F)cncc3[nH]1)C2 (stereo not drawn) [MPL-188, 4-fluoro-N-(1,7,7-trimethylnorbornan-2-yl)-1H-pyrrolo[2,3-c]pyridine-2-carboxamide]",,8 µg/mL
"Cc1cc(Cl)c2cc(C(=O)NC3CC4CCC3(C)C4(C)C)[nH]c2n1 (stereo not drawn) [MPL-195, 4-chloro-6-methyl-N-(1,7,7-trimethylnorbornan-2-yl)-1H-pyrrolo[2,3-b]pyridine-2-carboxamide]",0.014 µg/mL,2 µg/mL
"COc1cc(F)nc2[nH]c(C(=O)NC3CC[Si](C)(C)CC3)cc12 [MPL-200, N-(1,1-dimethylsilinan-4-yl)-6-fluoro-4-methoxy-1H-pyrrolo[2,3-b]pyridine-2-carboxamide]",0.072 µg/mL,16 µg/mL
"Cc1cc(Cl)c2cc(C(=O)NC3CC[Si](C)(C)CC3)[nH]c2n1 [MPL-208, 4-chloro-N-(1,1-dimethylsilinan-4-yl)-6-methyl-1H-pyrrolo[2,3-b]pyridine-2-carboxamide]",0.0045 µg/mL,1 µg/mL
"C[Si]1(C)CCCC(NC(=O)c2cc3c(F)c(C(F)(F)F)ncc3[nH]2)CC1 (stereo not drawn) [MPL-366, N-(1,1-dimethylsilepan-4-yl)-4-fluoro-5-(trifluoromethyl)-1H-pyrrolo[2,3-c]pyridine-2-carboxamide]",0.492 µg/mL,
"O=C(NC1CC[Si]2(CCCC2)CC1)c1cc2c(F)c(C(F)(F)F)ncc2[nH]1 [MPL-367, 4-fluoro-N-(5-silaspiro[4.5]decan-8-yl)-5-(trifluoromethyl)-1H-pyrrolo[2,3-c]pyridine-2-carboxamide]",0.988 µg/mL,

SMILES,MIC (M tb H37Rv),MIC (Mycobacterium abscessus)
"O=C(NC1CC[Si]2(CCCCC2)CC1)c1cc2c(F)c(C(F)(F)F)ncc2[nH]1 [MPL-368, 4-fluoro-N-(6-silaspiro[5.5]undecan-3-yl)-5-(trifluoromethyl)-1H-pyrrolo[2,3-c]pyridine-2-carboxamide]",0.49 µg/mL,
"Cc1c(C(F)(F)F)ncc2[nH]c(C(=O)NC3CC[Si](C)(C)CC3)cc12 [MPL-376, N-(1,1-dimethylsilinan-4-yl)-4-methyl-5-(trifluoromethyl)-1H-pyrrolo[2,3-c]pyridine-2-carboxamide]",0.188 µg/mL,
"COc1c(C(F)(F)F)ncc2[nH]c(C(=O)NC3CC[Si](C)(C)CC3)cc12 [MPL-379, N-(1,1-dimethylsilinan-4-yl)-4-methoxy-5-(trifluoromethyl)-1H-pyrrolo[2,3-c]pyridine-2-carboxamide]",0.332 µg/mL,
"CC(C)Oc1cncc2[nH]c(C(=O)NC3CC[Si](C)(C)CC3)cc12 [MPL-382, N-(1,1-dimethylsilinan-4-yl)-4-isopropoxy-1H-pyrrolo[2,3-c]pyridine-2-carboxamide]",0.368 µg/mL,
"C[Si]1(C)CCC(NC(=O)c2cc3ccc(-c4ccccc4)nc3[nH]2)CC1 [MPL-388, N-(1,1-dimethylsilinan-4-yl)-6-phenyl-1H-pyrrolo[2,3-b]pyridine-2-carboxamide]",0.012 µg/mL,
"C[Si]1(C)CCC(NC(=O)c2cc3ccc(-c4cccnc4)nc3[nH]2)CC1 [MPL-389, N-(1,1-dimethylsilinan-4-yl)-6-(3-pyridyl)-1H-pyrrolo[2,3-b]pyridine-2-carboxamide]",0.216 µg/mL,
"C[Si]1(C)CCC(NC(=O)c2cc3cc(-c4ccccc4)cnc3[nH]2)CC1 [MPL-391, N-(1,1-dimethylsilinan-4-yl)-5-phenyl-1H-pyrrolo[2,3-b]pyridine-2-carboxamide]",0.051 µg/mL,
"C[Si]1(C)CCC(NC(=O)c2cc3cc(-c4cccnc4)cnc3[nH]2)CC1 [MPL-392, N-(1,1-dimethylsilinan-4-yl)-5-(3-pyridyl)-1H-pyrrolo[2,3-b]pyridine-2-carboxamide]",0.464 µg/mL,
"C[Si]1(C)CCC(NC(=O)c2cc3cc(C(F)(F)F)ncc3[nH]2)C1 (stereo not drawn) [MPL-402, N-(1,1-dimethylsilolan-3-yl)-5-(trifluoromethyl)-1H-pyrrolo[2,3-c]pyridine-2-carboxamide]",0.962 µg/mL,
"O=C(NC1CC[Si]2(CCCCC2)CC1)c1cc2cc(-c3ccccc3F)cnc2[nH]1 [MPL-434, 5-(2-fluorophenyl)-N-(6-silaspiro[5.5]undecan-3-yl)-1H-pyrrolo[2,3-b]pyridine-2-carboxamide]",0.061 µg/mL,
"O=C(NC1CC[Si]2(CCCCC2)CC1)c1cc2cc(-c3cccnc3)cnc2[nH]1 [MPL-435, 5-(3-pyridyl)-N-(6-silaspiro[5.5]undecan-3-yl)-1H-pyrrolo[2,3-b]pyridine-2-carboxamide]",1 µg/mL,
C[Si]1(C)CCC(NC(=O)c2cc3cc(-c4ccccc4)ncc3[nH]2)CC1 [MPL-445],0.119 µg/mL,
"Cc1c(C(F)(F)F)ncc2[nH]c(C(=O)NC3CCC[Si](C)(C)CC3)cc12 (stereo not drawn) [MPL-451, N-(1,1-dimethylsilepan-4-yl)-4-methyl-5-(trifluoromethyl)-1H-pyrrolo[2,3-c]pyridine-2-carboxamide]",0.99 µg/mL,
"COc1ncc2[nH]c(C(=O)NC3CC[Si](C)(C)CC3)cc2c1C(F)(F)F [MPL-452, N-(1,1-dimethylsilinan-4-yl)-5-methoxy-4-(trifluoromethyl)-1H-pyrrolo[2,3-c]pyridine-2-carboxamide]",0.118 µg/mL,
"COc1ccc2cc(C(=O)NC3CC[Si]4(CCCC4)CC3)[nH]c2n1 [MPL-454, 6-methoxy-N-(5-silaspiro[4.5]decan-8-yl)-1H-pyrrolo[2,3-b]pyridine-2-carboxamide]",0.458 µg/mL,
"COc1ccc2cc(C(=O)NC3CC[Si]4(CCCCC4)CC3)[nH]c2n1 [MPL-455, 6-methoxy-N-(6-silaspiro[5.5]undecan-3-yl)-1H-pyrrolo[2,3-b]pyridine-2-carboxamide]",0.121 µg/mL,
"COc1cc(Cl)c2cc(C(=O)NC3CC[Si](C)(C)CC3)[nH]c2n1 [MPL-465, 4-chloro-N-(1,1-dimethylsilinan-4-yl)-6-methoxy-1H-pyrrolo[2,3-b]pyridine-2-carboxamide]",0.008 µg/mL,
"COc1ccc2cc(C(=O)NC3CCC[Si](C)(C)CC3)[nH]c2n1 (stereo not drawn) [MPL-466, N-(1,1-dimethylsilepan-4-yl)-6-methoxy-1H-pyrrolo[2,3-b]pyridine-2-carboxamide]",0.119 µg/mL,
"C[Si]1(C)CCC(NC(=O)c2cc3ccc(OC4CCC4)nc3[nH]2)CC1 [MPL-467, 6-(cyclobutoxy)-N-(1,1-dimethylsilinan-4-yl)-1H-pyrrolo[2,3-b]pyridine-2-carboxamide]",0.121 µg/mL,
"COc1ccc2cc(C(=O)NC3CCC[Si](C)(C)CCC3)[nH]c2n1 [MPL-469, N-(1,1-dimethylsilocan-5-yl)-6-methoxy-1H-pyrrolo[2,3-b]pyridine-2-carboxamide]",0.206 µg/mL,
